Assay results from article PMC11375437, “Selective labelling of GBA2 in cells with fluorescent β-D-arabinofuranosyl cyclitol aziridines” (Chemical Science, 2024).

Biological target: T1, GBA2 (Homo sapiens, UniProt Q9HCG7)
T1 sequence (Q9HCG7 1-927): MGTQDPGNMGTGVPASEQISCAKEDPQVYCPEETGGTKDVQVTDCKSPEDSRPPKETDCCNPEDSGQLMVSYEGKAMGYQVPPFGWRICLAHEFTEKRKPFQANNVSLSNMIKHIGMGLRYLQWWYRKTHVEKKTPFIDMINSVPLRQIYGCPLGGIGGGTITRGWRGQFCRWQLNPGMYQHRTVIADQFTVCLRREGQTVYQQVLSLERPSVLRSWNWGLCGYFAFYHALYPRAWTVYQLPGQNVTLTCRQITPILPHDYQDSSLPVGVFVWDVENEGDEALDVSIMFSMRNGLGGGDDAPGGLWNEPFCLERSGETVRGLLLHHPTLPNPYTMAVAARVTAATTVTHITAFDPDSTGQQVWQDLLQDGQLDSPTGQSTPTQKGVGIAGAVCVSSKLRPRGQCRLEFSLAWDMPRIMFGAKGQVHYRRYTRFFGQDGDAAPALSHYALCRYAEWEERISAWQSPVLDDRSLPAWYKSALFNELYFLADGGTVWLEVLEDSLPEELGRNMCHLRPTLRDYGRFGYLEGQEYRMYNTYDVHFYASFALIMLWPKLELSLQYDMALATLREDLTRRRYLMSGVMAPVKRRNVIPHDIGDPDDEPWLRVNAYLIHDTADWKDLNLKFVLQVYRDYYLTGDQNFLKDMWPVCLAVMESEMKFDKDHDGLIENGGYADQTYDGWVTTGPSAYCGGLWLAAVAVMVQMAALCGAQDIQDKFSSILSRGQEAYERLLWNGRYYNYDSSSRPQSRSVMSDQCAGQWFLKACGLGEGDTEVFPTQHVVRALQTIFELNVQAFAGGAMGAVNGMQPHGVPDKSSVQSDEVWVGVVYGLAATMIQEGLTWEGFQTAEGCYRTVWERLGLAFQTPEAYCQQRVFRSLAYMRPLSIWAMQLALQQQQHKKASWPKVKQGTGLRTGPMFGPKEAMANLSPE
Experiment: In situ labelling of wild-type HEK293T cells, GBA2
Format: cell-based
Parameters: endogenous in cells; host or cells: wild-type HEK293T
Conditions: wild-type HEK293T intact cells; 24 h incubation
Description: Importantly, the GBA2 selectivity of β-D-Araf ABPs 3–5 was maintained during in situ labelling of wild-type HEK293T cells (ESI Fig. S9 ^†). […] Even after 24 h incubation, similar results were obtained: ABP 4 selectively labelled GBA2 at 10 nM, with only slight concomitant GBA1 labelling at concentrations higher than 100 nM (ESI Fig. S10 ^†). Selective GBA2 labelling by ABP 3 and 4 finally was also observed in human retinal pigment epithelial-1 cells (Fig. 5C).
Figure S9. Fluorescent gel images of in situ labelling of wild-type HEK293T cells by β-D-Araf aziridine ABPs 3-5.
β-D-Araf ABPs were firstly incubated with intact wild-type HEK293T cells for 1 or 2.5 h (1st incubation) and then cells were harvested. […]
2.12 Reactivity of β-D-Araf aziridines towards GBA2 orthologue in other species β-D-Araf aziridine ABP 3-5 or ABP 7 was incubated with homogenates of zebrafish (Danio rerio) larvae or mice brain for 1 h at 37 °C. […] The zebrafish homogenates were passed through a desalting column (in the same way as described for the irreversibility evaluation above) to remove interference from biological pigments when scanning at λEX 473 nm and λEM ≥ 510 nm for BODIPY green fluorescence. […]

COc1ccc(C2=[N+]3C(=C(CCCCc4cn(CCCCCCCCN5[C@@H]6[C@H](CO)[C@@H](O)[C@H](O)[C@@H]65)nn4)c4ccc(-c5ccc(OC)cc5)n4[B-]3(F)F)C=C2)cc1 (stereo partly shown) [ABP 4]
Concentration at which GBA2 is selectively labelled in situ: 10 nM
